Assay [1] has as its target T1, Type-2 angiotensin II receptor (Homo sapiens, UniProt P50052).
T1 sequence (P50052 whole entry): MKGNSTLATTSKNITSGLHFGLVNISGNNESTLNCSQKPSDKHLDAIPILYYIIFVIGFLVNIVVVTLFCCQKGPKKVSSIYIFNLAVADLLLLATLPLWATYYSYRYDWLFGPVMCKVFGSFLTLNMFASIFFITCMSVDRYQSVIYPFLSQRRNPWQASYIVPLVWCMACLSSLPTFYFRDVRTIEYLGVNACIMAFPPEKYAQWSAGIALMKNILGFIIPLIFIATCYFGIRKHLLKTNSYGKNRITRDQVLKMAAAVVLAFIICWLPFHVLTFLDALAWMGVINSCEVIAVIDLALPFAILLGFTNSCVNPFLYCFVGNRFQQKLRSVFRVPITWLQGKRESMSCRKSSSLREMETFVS
The assay is described as follows: The compound was tested for the ability to displace 50% of totally specifically bound [125I]- Ang II from Angiotensin II receptor, type 2.

The target in assay [2] is T2, Type-1 angiotensin II receptor A (Rattus norvegicus, UniProt P25095).
T2 sequence (P25095 whole entry): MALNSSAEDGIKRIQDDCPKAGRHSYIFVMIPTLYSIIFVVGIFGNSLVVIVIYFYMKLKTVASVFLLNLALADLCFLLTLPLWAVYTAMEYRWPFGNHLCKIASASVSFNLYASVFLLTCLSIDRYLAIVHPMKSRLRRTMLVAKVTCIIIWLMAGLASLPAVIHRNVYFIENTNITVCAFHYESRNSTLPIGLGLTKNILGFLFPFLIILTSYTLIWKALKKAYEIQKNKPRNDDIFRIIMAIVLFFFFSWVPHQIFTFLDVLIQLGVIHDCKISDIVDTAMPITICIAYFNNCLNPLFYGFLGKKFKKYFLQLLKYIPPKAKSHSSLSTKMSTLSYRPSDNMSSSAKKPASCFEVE
As to the kind of experiment: Displacement of [125I]- Ang II from type 1 Angiotensin II receptor.

A further assay deals with Rattus norvegicus. As to the kind of experiment: Effective dose required to lower blood pressure by 30 mm Hg in renal hypertensive rats following intravenous administration. The assay is classed as functional.
The target in assay [3] is T3, Type-1 angiotensin II receptor (Homo sapiens, UniProt P30556).
T3 sequence (P30556 whole entry): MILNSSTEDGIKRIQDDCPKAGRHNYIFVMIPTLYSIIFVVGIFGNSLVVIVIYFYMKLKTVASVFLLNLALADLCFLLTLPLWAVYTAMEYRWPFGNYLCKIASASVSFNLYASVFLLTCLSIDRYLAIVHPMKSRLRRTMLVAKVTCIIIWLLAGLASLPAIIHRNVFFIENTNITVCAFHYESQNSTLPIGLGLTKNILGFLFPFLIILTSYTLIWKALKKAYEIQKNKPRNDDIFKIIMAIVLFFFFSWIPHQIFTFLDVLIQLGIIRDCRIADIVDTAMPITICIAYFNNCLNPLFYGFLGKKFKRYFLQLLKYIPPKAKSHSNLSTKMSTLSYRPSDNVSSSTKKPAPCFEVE
As to the kind of experiment: The compound was tested for the ability to displace 50% of totally specifically bound [125I]- Ang II from Angiotensin II receptor, type 1 site.

The results in this text go back to ChEMBL document CHEMBL1153253, “Imidazolinones as nonpeptide angiotensin II receptor antagonists” (Bioorg Med Chem Lett, 1994).

By IC50 is commonly meant the point on the concentration scale where inhibition reaches its midpoint. Low values mean higher potency, high ones lower potency.

Regarding `CCCCC1=NC2(CCCC2)C(=O)N1Cc1ccc(-c2ccccc2S(=O)(=O)NC(=O)c2ccccc2)cc1`, the IC50 turned out to be 100 nM in assay [1] and 1 nM in assay [2]. In addition, the ED30 in the assay with Rattus norvegicus was determined as 0.29 mg/kg.

As to `CCCC1=NC2(CCSCC2)C(=O)N1Cc1ccc(-c2ccccc2-c2nnn[nH]2)cc1`, the IC50 in assay [3] came to 2 nM. The same molecule showed an ED30 with Rattus norvegicus of 0.26 mg/kg.

For `CCCC1=NC2(CC2)C(=O)N1Cc1ccc(-c2ccccc2-c2nn[nH]n2)cc1`, in assay [2], the IC50 turned out to be 3 nM. In addition, in the assay on Rattus norvegicus, the ED30 was determined as 0.54 mg/kg.

`CCCC1=NC2(CCCCC2)C(=O)N1Cc1ccc(-c2ccccc2-c2nnn[nH]2)cc1` displayed an IC50 in assay [2] of 3 nM. In the assay with Rattus norvegicus, this molecule displayed an ED30 of 0.25 mg/kg.

As for `CCCC1=NC2(CCCC2)C(=O)N1Cc1ccc(-c2ccccc2S(=O)(=O)NC(=O)c2ccccc2)cc1`, the IC50 in assay [1] was found to be 300 nM; in assay [2], 9 nM. In addition, the ED30 in the assay with Rattus norvegicus was found to be 0.14 mg/kg.

In assay [2], `CCCC1=NC(C(F)(F)F)(C(F)(F)F)C(=O)N1Cc1ccc(-c2ccccc2-c2nn[nH]n2)cc1` gave an IC50 of 20 nM.

In assay [2], `CCCC1=NC(C)(C)C(=O)N1Cc1ccc(-c2ccccc2-c2nn[nH]n2)cc1` registered an IC50 of 4 nM. This molecule also came in with an ED30 in the assay with Rattus norvegicus of 0.36 mg/kg.

Take `CCCC1=NC(c2ccccc2)(c2ccccc2)C(=O)N1Cc1ccc(-c2ccccc2-c2nn[nH]n2)cc1`: in assay [2], the IC50 is 300 nM.

As to `CCCC1=NC(C)(C)C(=O)N1Cc1ccc(-c2ccccc2S(=O)(=O)NC(=O)c2ccccc2)cc1`, the IC50 was determined as 200 nM in assay [1] and 3 nM in assay [2]. For the same molecule, the ED30 in the assay with Rattus norvegicus was found to be 0.17 mg/kg.

Regarding `CCCC1=NC2(CCCC2)C(=O)N1Cc1ccc(-c2ccccc2-c2nnn[nH]2)cc1`, in assay [2], the IC50 was 0.9 nM. In the assay with Rattus norvegicus, this molecule returned an ED30 of 0.32 mg/kg.

As to `O=C1N(Cc2ccc(-c3ccccc3-c3nn[nH]n3)cc2)C(c2ccccc2)=NC1(c1ccccc1)c1ccccc1`, in assay [2], the IC50 worked out at 1400 nM.

In turn, `CC1=NC(c2ccccc2)(c2ccccc2)C(=O)N1Cc1ccc(-c2ccccc2-c2nnn[nH]2)cc1` had an IC50 in assay [2] of 100 nM.

For the molecule `CCCC1=NC2(CCSCC2)C(=O)N1Cc1ccc(-c2ccccc2S(=O)(=O)NC(=O)c2ccccc2)cc1`, the IC50 came out at 200 nM in assay [1] and 1 nM in assay [2]. Besides, the ED30 in the assay with Rattus norvegicus is 0.29 mg/kg.

As for `CCCC1=NC2(CCOCC2)C(=O)N1Cc1ccc(-c2ccccc2-c2nn[nH]n2)cc1`, the IC50 in assay [2] came to 8 nM. Moreover, the ED30 with Rattus norvegicus came out at 0.2 mg/kg.

With `CCCCC1=NC2(CCCC2)C(=O)N1Cc1ccc(-c2ccccc2-c2nnn[nH]2)cc1` [IRBESARTAN], the IC50 in assay [2] came to 0.9 nM. In addition, the ED30 with Rattus norvegicus was determined as 0.16 mg/kg.
